Measured values: US20240209022A1, “NOVEL PEPTIDE HAVING ANTI-INFLAMMATORY AND TISSUE REGENERATIVE ACTIONS” (KOREA RESEARCH INSTITUTE OF BIOSCIENCE AND BIOTECHNOLOGY, priority 2020, published 2024)

Columns and labels:
[1] = tested on: collagen induced arthritis (CIA) model; experiment: Collagen induced arthritis (CIA) rheumatoid arthritis model; assay type: in vivo, DBA/1J mice; conditions: vs PBS buffer group; for thickness of the ankle joint: at the end of the experiment
[2] = tested on: non-alcoholic hepatitis model; experiment: High-fat diet-induced non-alcoholic steatohepatitis model, liver gene expression; assay type: in vivo, C57BL/6J mice; conditions: RT-qPCR; vs PBS buffer group
Experimental: A non-alcoholic hepatitis model was induced by feeding a high-fat diet to 8-week-old SPF male C57BL/6J mice. The experiment for groups administered with Amuc_1409 and PEP001 to PEP005 was performed as follows. Mice fed a high-fat diet for 45 weeks were fed a high-fat diet for an additional 3 weeks, and Amuc_1409 was dissolved in PBS buffer at a concentration of 2.4 μM and then orally administered to the mice by 150 μL per animal at the same time once a day until the end of the experiment, or mice fed a high-fat diet for 8 weeks were fed a high-fat diet for an additional 3 weeks, and PEP001, PEP002, PEP003, PEP004, or PEP005 was dissolved in PBS buffer at a concentration of 2.4 μM and then orally administered to the mice by 150 μL per animal at the same time once a day until the end of the experiment. To the control group, PBS buffer was orally administered in the same manner. The experiment for groups administered with PEP006 to PEP013 was performed as follows. The non-alcoholic hepatitis model was induced by ad libitum feeding of a high-fat diet for 32, 50, or 53 weeks. Mice fed a high-fat diet for 50 weeks were fed a high-fat diet for an additional 3 weeks, and a novel tetrapeptide PEP006, PEP007, PEP008, PEP009, or PEP010 was dissolved in PBS buffer at a concentration of 0.2 μg/150 μL and then orally administered to the mice by 150 μL per animal at the same time until the end of the test, and mice fed a high-fat diet for 53 weeks were fed a high-fat diet for an additional 3 weeks, and a novel […] PEP011, PEP012, or PEP013 was dissolved in PBS buffer at a concentration of 0.2 μg/150 μL and then orally administered to the mice by 150 μL per animal at the same time until the end of the test. To the control group, PBS buffer was orally administered in the same manner. At the end of the experiment, a part of the liver harvested was homogenized with Trizol to extract RNA. Reverse transcriptase was added to the obtained RNA and reacted to synthesize cDNA, and SYBR Green and primers were added to perform quantitative real-time PCR (RT-qPCR), and then the expression levels of genes such as Tnfα, Il-1β, Il-10, and Il-1rn were quantified.

[3] = tested on: MIA-induced degenerative arthritis model; experiment: MIA-induced degenerative arthritis model; assay type: in vivo, C57BL/6J mice; conditions: vs PBS buffer group; for diameter of the knee joint: day 1 after MIA injection, i.p.
Experimental: As a degenerative arthritis model, 9-week-old specific pathogen free (SPF) male C57BL/6J mice were anesthetized, the area around the right knee joint was cleanly shaved, and 10 μL of MIA solution (monosodium iodoacetate 0.5 mg in 10 μL 0.9% sterile saline) was injected into the knee joint cavity to induce arthritis. From 3 days before MIA (monosodium iodoacetate) solution injection, Amuc_1409 or PEP001, PEP002, PEP003, PEP004, PEP005, PEP006, PEP007, PEP008, PEP009, PEP010, PEP011, PEP012, or PEP013 was dissolved in PBS buffer at a concentration of 6.7 μM and then injected into the mouse peritoneal cavity at 150 μL per animal once a day at the same time. On day 3 (0 days) after administration of Amuc_1409 or PEP001 to PEP013, an additional intraperitoneal injection was given 1 hour before MIA injection, the drug was intraperitoneally injected once a day at the same time after MIA injection, and the experiment was terminated on the 30th day after MIA injection. In the control group, the same volume of PBS buffer was injected intraperitoneally. After MIA injection, the diameter of the knee joint was measured using a caliper for 7 days at 2-day intervals (0, 1, 3, 5, and 7 days) to evaluate swelling caused by inflammatory changes of the joint. […] At this time, the weight bearing on the limb was lower as arthritis was more severe. The weight-bearing weight (g) of each of both paws was measured, and in this experiment, the value was expressed as the ratio (%) of the right hind limb with arthritis to the total hind limb. Weight bearing ratio (%)=weight-bearing weight of right hind limb with arthritis (g)/weight-bearing weight of both hind limbs (g)×100 After termination of the experiment, the test animals were sacrificed, then the knee joint tissue of the mouse was fixed with 10% neutral buffered formalin, and the bone was decalcified with a 0.5 M EDTA solution. Next, the joint tissue was embedded in paraffin to prepare a 5 μm joint section, and Safranin O staining was performed to histopathologically analyze the degree of damage to the cartilage tissue. At this time, the degree of damage to the cartilage tissue was evaluated by examining the degree of safranin O staining of the sections and scored according to OARSI (Osteoarthritis Research Society International grade) guidelines. The scoring criteria according to the OARSI guidelines are as follows (Table 1). [table]

**Q.** With RGAY (PEP007) as the substance, how does the “thickness of the ankle joint” value [1] read?
**A.** Its value is “significantly decreased”.

**Q.** And the “arthritis index (clinical score by date)” value [1]?
**A.** Its value is “significantly decreased from day 28 after the first CII injection to the experiment end day”.

**Q.** And the “swelling of the hind paws by macrophotography” value [1]?
**A.** The value was “remarkably improved”.

**Q.** And the “Ifnγ gene expression in liver tissue” value [2]?
**A.** Its value is “tended to decrease”.

**Q.** And the “Il-6 gene expression in liver tissue” value [2]?
**A.** The value was “tended to decrease”.

**Q.** What about the “Tnfα gene expression in liver tissue” value [2] of the same substance?
**A.** The value was “significantly decreased”.

**Q.** What about the weight bearing ratio ([3]; 2 weeks after MIA injection) of the same substance?
**A.** Its weight bearing ratio is “significantly increased”.

**Q.** What about the weight bearing ratio ([3]; 4 weeks after MIA injection) of the same substance?
**A.** Its weight bearing ratio is “significantly increased”.

**Q.** And the “diameter of the knee joint” value [3]?
**A.** The value was “significantly decreased”.

**Q.** And the “thickness of the knee joint” value ([3]; day 3 after MIA injection)?
**A.** Its value is “significantly decreased”.

**Q.** And the “thickness of the knee joint” value ([3]; day 5 after MIA injection)?
**A.** The value was “tended to decrease”.

**Q.** And the “thickness of the knee joint” value ([3]; day 7 after MIA injection)?
**A.** Its value is “significantly decreased”.

**Q.** Which results are given for SGAY (PEP009)?
**A.** thickness of the ankle joint [1]: significantly decreased; arthritis index (clinical score by date) [1]: significantly decreased from day 30 after the first CII injection to the experiment end day; swelling of the hind paws by macrophotography [1]: remarkably improved; Ifnγ gene expression in liver tissue [2]: tended to decrease; Il-1p gene expression in liver tissue [2]: significantly decreased; Il-6 gene expression in liver tissue [2]: tended to decrease; Tnfα gene expression in liver tissue [2]: tended to decrease; weight bearing ratio ([3]; 2 weeks after MIA injection): tended to increase close to a significant level; weight bearing ratio ([3]; 4 weeks after MIA injection): significantly increased; diameter of the knee joint [3]: tended to decrease; thickness of the knee joint ([3]; day 3 after MIA injection): significantly decreased; thickness of the knee joint ([3]; day 5 after MIA injection): tended to decrease; thickness of the knee joint ([3]; day 7 after MIA injection): significantly decreased

**Q.** VGAY (PEP010) was tested. Which “thickness of the ankle joint” value [1] did it give?
**A.** The value was “significantly decreased”.

**Q.** What about the “arthritis index (clinical score by date)” value [1] of the same substance?
**A.** Its value is “significantly decreased from day 30 after the first CII injection to the experiment end day”.

**Q.** And the “swelling of the hind paws by macrophotography” value [1]?
**A.** The value was “remarkably improved”.

**Q.** And the “Ifnγ gene expression in liver tissue” value [2]?
**A.** Its value is “tended to decrease”.

**Q.** What about the “Il-1p gene expression in liver tissue” value [2] of the same substance?
**A.** Its value is “significantly decreased”.

**Q.** And the “Il-6 gene expression in liver tissue” value [2]?
**A.** Its value is “tended to decrease”.

**Q.** And the “Tnfα gene expression in liver tissue” value [2]?
**A.** The value was “tended to decrease”.

**Q.** What about the weight bearing ratio ([3]; 2 weeks after MIA injection) of the same substance?
**A.** Its weight bearing ratio is “significantly increased”.

**Q.** What about the weight bearing ratio ([3]; 4 weeks after MIA injection) of the same substance?
**A.** Its weight bearing ratio is “significantly increased”.

**Q.** And the “diameter of the knee joint” value [3]?
**A.** Its value is “tended to decrease”.

**Q.** What about the “thickness of the knee joint” value ([3]; day 3 after MIA injection) of the same substance?
**A.** The value was “significantly decreased”.

**Q.** What about the “thickness of the knee joint” value ([3]; day 5 after MIA injection) of the same substance?
**A.** Its value is “significantly decreased”.

**Q.** What about the “thickness of the knee joint” value ([3]; day 7 after MIA injection) of the same substance?
**A.** Its value is “significantly decreased”.
